Measurements published in ChEMBL document CHEMBL3414499, “Characterization of two distinct structural classes of selective aldehyde dehydrogenase 1A1 inhibitors” (J Med Chem, 2015).
Activity calls are given as the source filed them. The rule behind the calls is not given here.

Legend:
[1] = molecular target: T1, Retinaldehyde dehydrogenase 3 (Homo sapiens, UniProt P47895); assay: Inhibition of recombinant human ALDH1A3 using propionaldehyde as substrate preincubated for 2 mins with NAD+ followed by substrate addition by UV-Vis spectrophotometric analysis
T1 sequence (P47895 whole entry): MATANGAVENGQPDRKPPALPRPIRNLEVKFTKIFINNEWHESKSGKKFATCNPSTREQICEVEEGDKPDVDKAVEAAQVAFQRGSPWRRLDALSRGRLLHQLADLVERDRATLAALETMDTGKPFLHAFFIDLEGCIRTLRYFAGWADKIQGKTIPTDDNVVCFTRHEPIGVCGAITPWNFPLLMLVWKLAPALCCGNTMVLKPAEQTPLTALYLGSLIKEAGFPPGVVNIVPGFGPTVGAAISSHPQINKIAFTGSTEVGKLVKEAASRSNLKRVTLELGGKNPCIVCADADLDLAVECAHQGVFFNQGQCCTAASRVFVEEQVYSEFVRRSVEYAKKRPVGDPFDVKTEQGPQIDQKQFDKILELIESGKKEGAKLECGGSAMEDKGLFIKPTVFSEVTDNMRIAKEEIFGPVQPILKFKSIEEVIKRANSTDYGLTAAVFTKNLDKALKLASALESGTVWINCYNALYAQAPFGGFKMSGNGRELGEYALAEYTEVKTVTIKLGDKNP

[2] = molecular target: T2, Aldehyde dehydrogenase, dimeric NADP-preferring (Homo sapiens, UniProt P30838); assay: Inhibition of recombinant human ALDH3A1 using benzaldehyde as substrate preincubated for 2 mins with NAD+ followed by substrate addition by UV-Vis spectrophotometric analysis
T2 sequence (P30838 whole entry): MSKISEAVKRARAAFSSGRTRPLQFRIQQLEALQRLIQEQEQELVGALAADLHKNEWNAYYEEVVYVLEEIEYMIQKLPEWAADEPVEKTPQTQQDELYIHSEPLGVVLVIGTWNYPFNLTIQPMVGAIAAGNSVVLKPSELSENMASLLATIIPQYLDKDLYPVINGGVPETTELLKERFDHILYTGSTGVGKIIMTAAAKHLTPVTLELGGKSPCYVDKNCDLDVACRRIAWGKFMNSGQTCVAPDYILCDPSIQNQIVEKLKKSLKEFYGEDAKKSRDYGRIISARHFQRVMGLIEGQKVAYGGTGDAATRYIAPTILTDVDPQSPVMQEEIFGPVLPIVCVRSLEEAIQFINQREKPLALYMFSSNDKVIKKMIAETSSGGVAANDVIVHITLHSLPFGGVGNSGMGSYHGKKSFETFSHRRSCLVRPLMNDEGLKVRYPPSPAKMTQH

[3] = molecular target: T3, Retinal dehydrogenase 2 (Homo sapiens) (UniProt O94788); assay: Effect on recombinant human ALDH1A2 using propionaldehyde as substrate at 20 uM preincubated for 2 mins with NAD+ followed by substrate addition by UV-Vis spectrophotometric analysis
T3 sequence (whole entry): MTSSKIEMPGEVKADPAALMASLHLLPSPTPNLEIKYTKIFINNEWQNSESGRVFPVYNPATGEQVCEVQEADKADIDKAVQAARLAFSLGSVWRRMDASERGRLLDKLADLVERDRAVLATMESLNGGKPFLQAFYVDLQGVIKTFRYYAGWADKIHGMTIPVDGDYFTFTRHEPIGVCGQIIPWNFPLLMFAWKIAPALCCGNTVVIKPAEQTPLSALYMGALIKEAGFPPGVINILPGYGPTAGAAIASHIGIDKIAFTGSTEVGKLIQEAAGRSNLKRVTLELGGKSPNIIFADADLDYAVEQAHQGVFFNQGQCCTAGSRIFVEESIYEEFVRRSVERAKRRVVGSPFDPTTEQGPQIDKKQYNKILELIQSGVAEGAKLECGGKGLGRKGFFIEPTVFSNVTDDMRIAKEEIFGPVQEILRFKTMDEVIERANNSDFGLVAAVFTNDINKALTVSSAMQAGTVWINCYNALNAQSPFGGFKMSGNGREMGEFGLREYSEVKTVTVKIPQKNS

[4] = molecular target: T4, Retinaldehyde dehydrogenase 3 (Homo sapiens) (UniProt P47895); assay: Effect on recombinant human ALDH1A3 using propionaldehyde as substrate at 20 uM preincubated for 2 mins with NAD+ followed by substrate addition by UV-Vis spectrophotometric analysis
T4 sequence (whole entry): T1 sequence (P47895 whole entry)

[5] = molecular target: T5, Aldehyde dehydrogenase, mitochondrial (Homo sapiens) (UniProt P05091); assay: Effect on recombinant human ALDH2 using propionaldehyde as substrate at 20 uM preincubated for 2 mins with NAD+ followed by substrate addition by UV-Vis spectrophotometric analysis
T5 sequence (whole entry): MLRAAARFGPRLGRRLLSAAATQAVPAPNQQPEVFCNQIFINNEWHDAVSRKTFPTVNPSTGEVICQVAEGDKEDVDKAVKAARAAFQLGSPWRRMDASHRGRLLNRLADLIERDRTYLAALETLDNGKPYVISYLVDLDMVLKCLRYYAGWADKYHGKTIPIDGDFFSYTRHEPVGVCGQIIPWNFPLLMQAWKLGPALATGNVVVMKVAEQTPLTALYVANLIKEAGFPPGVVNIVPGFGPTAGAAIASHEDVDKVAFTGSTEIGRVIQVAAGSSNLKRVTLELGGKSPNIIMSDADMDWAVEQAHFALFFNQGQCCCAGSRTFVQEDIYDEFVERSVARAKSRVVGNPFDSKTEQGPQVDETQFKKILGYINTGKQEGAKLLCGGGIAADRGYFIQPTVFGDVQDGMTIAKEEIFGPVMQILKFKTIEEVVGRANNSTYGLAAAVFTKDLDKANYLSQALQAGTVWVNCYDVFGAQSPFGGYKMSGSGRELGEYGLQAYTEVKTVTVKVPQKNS

[6] = molecular target: T6, Aldehyde dehydrogenase, dimeric NADP-preferring (Homo sapiens) (UniProt P30838); assay: Effect on recombinant human ALDH3A1 using benzaldehyde as substrate at 20 uM preincubated for 2 mins with NAD+ followed by substrate addition by UV-Vis spectrophotometric analysis
T6 sequence (whole entry): T2 sequence (P30838 whole entry)

[7] = molecular target: T7, Succinate-semialdehyde dehydrogenase, mitochondrial (Homo sapiens) (UniProt P51649); assay: Effect on human ALDH5A1 at 20 uM preincubated for 2 mins with NAD+ followed by aldehyde substrate addition
T7 sequence (whole entry): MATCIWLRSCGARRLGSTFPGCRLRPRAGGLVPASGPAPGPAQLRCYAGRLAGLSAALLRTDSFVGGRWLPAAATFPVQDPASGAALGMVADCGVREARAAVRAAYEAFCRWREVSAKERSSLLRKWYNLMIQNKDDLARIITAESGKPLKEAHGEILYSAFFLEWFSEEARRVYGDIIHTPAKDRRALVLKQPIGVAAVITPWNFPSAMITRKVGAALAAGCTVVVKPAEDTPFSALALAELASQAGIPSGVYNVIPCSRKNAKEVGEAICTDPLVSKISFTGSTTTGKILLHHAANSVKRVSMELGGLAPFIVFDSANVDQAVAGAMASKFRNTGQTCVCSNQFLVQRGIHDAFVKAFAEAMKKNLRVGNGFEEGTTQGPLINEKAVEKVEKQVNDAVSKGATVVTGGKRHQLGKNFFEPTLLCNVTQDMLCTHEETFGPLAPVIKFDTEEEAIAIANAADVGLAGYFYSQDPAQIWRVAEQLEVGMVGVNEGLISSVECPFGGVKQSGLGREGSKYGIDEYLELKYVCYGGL

`CCCCn1c(CN2CCN(c3cccc(Cl)c3)CC2)nc2c1c(=O)n(C)c(=O)n2C` gave an IC50 [1] of over 20 µM.
`Cn1c(=O)c2c(nc(SCC(N)=O)n2Cc2ccccc2F)n(C)c1=O` gave an IC50 [2] of over 100 µM.
`CCCCn1c(CN2CCN(c3ccc(OC)cc3)CC2)nc2c1c(=O)n(C)c(=O)n2C` showed an IC50 [1] of over 100 µM.
`CC(C)CCn1c(CN2CCN(C(=O)c3ccco3)CC2)nc2c1c(=O)n(C)c(=O)n2C` was tested, and the Activity [3] was “inactive”, the Activity [4] was “inactive” and the Activity [5] was “inactive”. The Activity [6] was “inactive” and the Activity [7] was “inactive”.
